The values below come from patent CN107475146A, “一种链霉菌及其代谢产物粉蝶霉素类化合物在抗肾癌中的应用” (priority 2017, dated 2017).

Holding throughout (type): cell-based
For assay [1], the system named is 786-O and ACHN cells [786-O和ACHN细胞]. Nature of the assay: CCK-8 assay, 786-O and ACHN human renal cancer cells, result stated jointly for both lines. A general note: Formazan colour is commonly taken as a measure of viable cells.
The subject of assay [2] is ACHN human renal cancer cell line [ACHN人肾癌细胞株]. Briefly: CCK-8 assay, inhibition of proliferation of ACHN human renal cancer cells. The conditions noted are these: 72 h.
In assay [3] the test system is OS-RC-2 human renal cancer cell line [OS-RC-2人肾癌细胞株]. Nature of the assay: CCK-8 assay, inhibition of proliferation of OS-RC-2 human renal cancer cells. As to conditions: for IC50: CCK-8, 72 h.
Assay [4] concerns 786-O human renal cancer cell line [786-O人肾癌细胞株]. Briefly: CCK-8 assay, inhibition of proliferation of 786-O human renal cancer cells.

Where only a bound is given, the exact number is not on record here.

On to `CC=C(C)C(O)C(C)C=C(C)C=CCC(C)=CCc1nc(OC)c(OC)c(O)c1C` (centres unmarked) [化合物1, Piericidin A], for which the IC50 was 0.4 to 72 µM in assay [1] (Homo sapiens, joint range over compounds 1, 2, 4 and 5, CCK-8, 72 h); 0.4 µM in assay [2] (Homo sapiens); 5.16 µM in assay [3] (Homo sapiens); 29.9 µM in assay [4] (Homo sapiens, 786-0, 72 h).

On to IT-143-A [compound 4], for which the IC50 in assay [3] was 20.5 µM; in assay [4] (72 h), 61.1 µM.

Regarding IT-143-B [化合物5], the IC50 amounted to 42.1 µM in assay [3] and 72 µM in assay [4] (72 h).

For Piericidin A2 [化合物2], the values for the IC50 in assay [2], in assay [3] and in assay [4] (72 h) were 14.2 µM, 16.4 µM and 50.3 µM, respectively.

For Piericidin C2 [化合物3], the IC50 was 22.4 µM in assay [3] and over 100 µM in assay [4] (72 h).

Regarding Piericidin s3a [化合物6], the selectivity entry in assay [1] (in words) was “具有一定的选择性”. Also, the IC50 was 30.9 µM in assay [3] and over 100 µM in assay [4] (72 h). Also, the inhibitory activity entry in assay [3] (in words) is recorded as “具有抑制活性”.

In general, IC50 refers to the midpoint of a concentration-inhibition curve. Lower therefore signals greater potency in that assay.
